Test results: patent US10716783B2, “Prolylhydroxylase/ATF4 inhibitors and methods of use for treating neural cell injury or death and conditions resulting therefrom” (CORNELL UNIVERSITY, priority 2013, dated 2020)
Entries after “also recorded” stand apart in the source; their conditions may differ. Like-named read-outs stand apart in the source and are kept apart here.

What was measured:
[1] = test system: primary cortical neurons; experiment: Oxidative glutamate (homocysteate) toxicity in cortical neurons; assay type: cell-based, rat
Excerpt: (§1) FIGS. 5A-5G. […] Because adaptoquin is a HIF PHD inhibitor that appears to work independent of HIF transcription factors, and because hemin induced death involves oxidative stress, the effect of adaptoquin on oxidative glutamate toxicity was examined. This form of toxicity is observed in primary cortical neurons from E17 rat embryos (2 DIV) and involves glutamate mediated inhibition of the amino acid cystine via its plasma membrane transporter. […] Accordingly, the optimal concentration of adaptoquin in protecting neurons was first determined and found to be about 1 micromolar. […] To determine the mechanism of adaptoquin, transcriptomic experiments were performed using non-protective and protective concentrations of drug harvesting RNA just prior to the time the cell's becoming insensitive to adaptoquin (16 hrs), as provided in FIG. 5C.
(§2) To probe the mechanism of adaptoquin-induced neuroprotection, the study moved its attention to a well established model of oxidative stress in neurons induced by glutamate. Like hemin induced toxicity, oxidative glutamate toxicity is abrogated by forced expression of GPX4 (Alim et al., unpublished observations). However, oxidative glutamate toxicity has a much longer window before cells are committed to die (eighteen hours), facilitating analysis of primary events involved in cell death and protection. A detailed dose response and therapeutic window study was performed with adaptoquin in mouse cortical neurons exposed to glutamate or the glutamate analog, homocysteate. […] To probe the mechanism of this potent, delayed protection, a microarray transcriptomics study was performed using RNA from neuronal cultures that had been exposed to glutamate (or HCA) for 16 hours with vehicle, as well as non-protective (100 nM) and protective doses of adaptoquin (1 μM). Protective, but not protective doses of adaptoquin reduced expression of a host of genes induced by oxidative stress including Tribbles homolog 3, methylene tetrahydrofolate reductase, the Xc-transporter, and stanniocalcin-2 hormone glycoprotein.

[2] = test system: ATF4; experiment: ATF4 dependent gene expression under oxidative stress in neurons (microarray, qPCR, promoter occupancy); assay type: cell-based
Excerpt: as §1
(§3) FIGS. 6A-6I. […] Expression of ATF4 was forced into primary neurons, which induces death of these neurons by MTT assay (FIG. 6D) or LIVE/DEAD staining, Green is live, Red is dead (FIG. 6E).
as §2, with “Protective, but not protective doses of adaptoquin reduced expression of a host of genes induced by oxidative stress including Tribbles homolog 3, methylene tetrahydrofolate reductase, the Xc-transporter, and stanniocalcin-2 hormone glycoprotein.” left out

[3] = target: recombinant HIF PHD2 (Homo sapiens, UniProt Q9GZT9); experiment: Recombinant HIF PHD2 hydroxylation of HIF peptide, non-denaturing mass spectrometry; assay type: biochemical
Excerpt: (§4) FIGS. 3A-3G. Validation of adaptoquin as a novel HIF PHD inhibitor. […] Under steady state conditions, activity of HIF PHD2 with its co-substrate 2-oxoglutarate involves two peaks that represent non-hydroxylated and hydroxylated peptide. The hydroxylated peptide disappears in the presence of HIF PHD2 inhibition by adaptoquin. […] The reporter contains the ODD domain of HIF-1 which confers HIF PHD regulated stability on it. It is expressed in all cells of the body, but is destabilized in the absence of HIF PHD inhibition and stabilized in its presence. Quantitative measurements confirm stability of the ODD-luc in brain, kidney and liver (FIGS. 3D and 3E.).
(§5) To verify that the changes in light in the brain reflect parenchymal changes in ODD-luciferase levels rather than increases in changes in skin or dural ODD-luciferase, ODD-luciferase activity was measured normalized to total protein in lysates from distinct brain regions using a luminometer.

[4] = test system: primary neurons; experiment: Death induced by forced ATF4 expression in primary neurons (MTT, LIVE/DEAD); assay type: cell-based; conditions: concentrations protective in the oxidative stress model
Excerpt: as §3

[5] = test system: HIF PHDs; experiment: ODD-luciferase reporter mice, in vivo bioluminescence imaging and tissue lysates; conditions: for ODD-luciferase activity in brain: in vivo bioluminescence imaging, intraperitoneal; for ODD-luciferase activity in lysates from different brain regions: normalized to total protein, luminometer
Excerpt: as §4
To identify HIF PHD inhibitors suitable for testing in ICH, the experiment first sought to identify which of the known HIF PHD inhibitors could penetrate the blood brain barrier to inhibit HIF PHD activity in the CNS. To monitor HIF PHD activity dynamically, the experiment utilized mice that had previously been engineered to ubiquitously express the oxygen degradation domain (ODD) of HIF-1α fused to firefly luciferase. The ODD domain contains proline 402 and 564, which are hydroxylated by the HIF PHDs to degrade HIF-1 or the ODD-luciferase. Accordingly, these mice have been used previously to track HIF PHD activity in diverse organs in vivo using in vivo bioluminescence imaging.
as §5

[6] = test system: immortalized hippocampal neuroblasts (HT22 cells); experiment: Hemin-induced toxicity in hippocampal neuroblasts (MTT); assay type: cell-based
Excerpt: FIGS. 1A-1L: Structurally diverse HIF PHD inhibitors stabilize HIF-1 and abrogate toxicity induced by hemin, a byproduct of blood breakdown, in cortical neurons hippocampal neuroblasts and striatal neuroblasts (not shown).
Secondary injury from ICH has been attributed to hemin, a breakdown product of hemoglobin (from lysed red blood cells). To investigate the mechanisms of hemin toxicity to neurons in vitro, this experiment exposed primary cortical neurons, immortalized hippocampal neuroblasts (HT22 cells), and immortalized striatal neuroblasts (Q7 cells) to hemin for 24 hours. As expected, a dose dependent loss in viability as measured by MTT reduction or LIVE/DEAD assay in all three cell types was observed. […] To examine whether iron-dependent HIF PHD enzymes can be modulated to protect neurons from hemin-induced toxicity, this experiment examined structurally diverse inhibitors of the HIF PHDs: desferoxamine, cyclopirox, and dihydroxybenzoic acid. […] To test this notion further using a chemical biological approach, the protective effects of cyclopirox, a HIF PHD inhibitor, and a cyclopirox analog with no PHD inhibitory activity but with similar metal binding affinity to cyclopirox were compared. As expected, only the cyclopirox analog with PHD inhibitory activity was neuroprotective. […]

Chain of recombinant HIF PHD2 (Q9GZT9 whole entry, the tested form may be a part): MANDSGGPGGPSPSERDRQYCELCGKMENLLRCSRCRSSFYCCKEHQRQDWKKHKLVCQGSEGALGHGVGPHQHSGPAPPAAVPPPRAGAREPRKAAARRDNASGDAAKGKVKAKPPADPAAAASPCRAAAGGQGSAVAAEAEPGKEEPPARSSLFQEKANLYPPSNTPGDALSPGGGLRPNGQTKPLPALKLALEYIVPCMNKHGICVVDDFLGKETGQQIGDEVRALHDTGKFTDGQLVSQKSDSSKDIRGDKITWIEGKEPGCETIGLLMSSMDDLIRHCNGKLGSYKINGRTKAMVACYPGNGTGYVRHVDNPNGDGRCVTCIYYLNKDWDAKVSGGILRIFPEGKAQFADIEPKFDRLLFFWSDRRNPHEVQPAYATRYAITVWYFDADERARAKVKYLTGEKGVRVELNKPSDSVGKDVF

## Oc1cccnc1NC(c1ccc(Cl)cc1)c1ccc2cccnc2c1O (centres unmarked) [adaptoquin]
[1]; 0.1 micromolar (100 nM)
  Protection against oxidative death: non-protective
[1]; 1 micromolar
  Protection against oxidative death: complete protection
  Time after glutamate/homocysteate treatment at which the compound can still be added and protect: up to 16 hours
[1]; 1 micromolar, listed as adaptaquin
  Protection against oxidative death: protection is significant
[1]; oxidative glutamate toxicity
  Optimal concentration in protecting neurons: about 1 micromolar
[2]; 1 micromolar
  Oxidative stress and ATF4 dependent induction of Trb3: abrogates oxidative stress and ATF4 dependent induction of Trb3
[2]; oxidative stress
  ATF4 occupancy at the promoter of Trib3: abrogates oxidative stress induced ATF4 occupancy
[2]; protective doses (1 μM), quantitative PCR / microarray
  Expression of ATF4 dependent genes (Trib3, MTHFR2, SCL7A11, STC2): significantly reduces expression of ATF4 dependent genes; also recorded: downregulation of ATF4 dependent genes
[3]
  Inhibition of recombinant HIF PHD2 activity (hydroxylation of HIF peptide): inhibit the ability of recombinant HIF prolyl hydroxylase 2 to hydroxylate an HIF peptide
[3]; listed as Adpatoquin
  Inhibition of recombinant HIF PHD2 activity (hydroxylation of HIF peptide): inhibits activity of recombinant HIF PHD2
[4]
  Death induced by oxidative stress and ATF4 forced expression: mitigates death induced by oxidative stress and ATF4 forced expression
[5]; adaptoquin 30 mg/kg
  Message levels of p21 waf1/cip1 in brain: increased message levels of p21 waf1/cip1
  ODD-luciferase activity in brain: significantly increase ODD-luciferase levels and activity
[5]; adaptoquin 30 mg/kg, listed as Adaptoquin
  ODD-luciferase activity in brain: inhibits the HIF PHDs in brain in a dose dependent fashion
[5]
  ODD-luciferase activity in lysates from different brain regions: An increase in activity
[5]; listed as Adaptoquin
  ODD-luciferase activity in lysates from different brain regions: dose dependent increases throughout the brain
[6]
  Hemin-induced death / protection after HIF-1α or HIF-2α reduction (shRNA): prevents hemin induced death independent of HIF-1 and HIF-2
